Source: patent publication US7794994B2 (Kemeta, LLC, priority 2001, dated 2010)

How the values were obtained:
[1] = system: S-ADH from M. vaccae JOB-5; assay: S-ADH spectrophotometric assay, propane-grown M. vaccae JOB-5; format: biochemical, Mycobacterium vaccae strain JOB-5; conditions: for Relative S-ADH Activity (%) JOB 5, alcohol oxidation: alcohol oxidation rates, pH 7.6, 2.5 mM substrate, 0.2 mM NAD+, 2-propanol = 100, NA = no activity detected; for Relative S-ADH Activity (%) JOB 5, ketone reduction: ketone reduction rates, pH 6.2, 2.5 mM substrate, 0.2 mM NADH, acetone = 100
Procedure: Assays were performed in 2 mL quartz cuvettes and contained NAD(H) (0.2 mM), potassium phosphate buffer (25 mM), and a source of enzyme (cell-free extracts, column fractions, or purified enzyme) in a total reaction volume of 1 mL at pH 6.2 ([…]) at 30° C. Assays were pre-incubated for 1.5 min. at 30° C. with all assay components except substrate. Assays were initiated by addition of substrate (2.5 mM) and monitored over time by measuring the change in absorbance at 340 nm (∈340 of 6.22 mM^−1·cm^−1 for NADH).

[2] = system: 3-enzyme system (S-ADH coupled to lactate dehydrogenase and pyruvate oxidase); assay: S-ADH coupled to H2O2 formation electrochemical assay (3-enzyme system), interference compounds; format: biochemical, X. autotrophicus Py2; conditions: for interference with the acetone measurement (current response): Acetone plus 10 mM ethanol, 50 μM isopropanol or 50 μM isobutanol, data not shown
Procedure: Secondary alcohol dehydrogenase coupled to H2O2 formation electrochemical assay. […] Before measurements the electrode surface was polished using Al2O3 paste for 1 min. and then rinsed with deionized water, sonicated for 1 min. and rinsed with water again. The polished Pt electrode was then pretreated electrochemically by applying 10 cycles of 100 mV/s from +200 mV to +900 mV. All potentials were referenced versus a Ag/AgCl electrode (BAS part number MF-2078). Assays contained potassium phosphate (100 mM, pH 7.2), purified S-ADH (1 U/mL), NADH (201 μM), lactate (100 mM), lactate dehydrogenase (5 U/mL), pyruvate oxidase (4 U/mL), flavin adenine dinucleotide (0.01 mM), cocarboxylase (0.2 mM), in a total volume of 0.5 mL. […] After a 2 min. incubation period, the potential was stepped from open circuit to 350 mV.

[3] = biological target: T1, acetone carboxylase coupled to β-hydroxybutyrate dehydrogenase (Xanthobacter versatilis, UniProt Q8RM03+Q8RM04); assay: Acetone carboxylase coupled to NADH oxidation spectrophotometric assay; format: biochemical, X. autotrophicus strain Py2; conditions: for activity as substrate and inhibition of acetone carboxylation activity: alternative compounds in coupled enzyme system
T1 construct: host or cells: X. autotrophicus strain Py2 (native organism; enzyme obtained from Prof; S. A. Ensign / purified as previously published)
T1 sequence (Q8RM03 1-776): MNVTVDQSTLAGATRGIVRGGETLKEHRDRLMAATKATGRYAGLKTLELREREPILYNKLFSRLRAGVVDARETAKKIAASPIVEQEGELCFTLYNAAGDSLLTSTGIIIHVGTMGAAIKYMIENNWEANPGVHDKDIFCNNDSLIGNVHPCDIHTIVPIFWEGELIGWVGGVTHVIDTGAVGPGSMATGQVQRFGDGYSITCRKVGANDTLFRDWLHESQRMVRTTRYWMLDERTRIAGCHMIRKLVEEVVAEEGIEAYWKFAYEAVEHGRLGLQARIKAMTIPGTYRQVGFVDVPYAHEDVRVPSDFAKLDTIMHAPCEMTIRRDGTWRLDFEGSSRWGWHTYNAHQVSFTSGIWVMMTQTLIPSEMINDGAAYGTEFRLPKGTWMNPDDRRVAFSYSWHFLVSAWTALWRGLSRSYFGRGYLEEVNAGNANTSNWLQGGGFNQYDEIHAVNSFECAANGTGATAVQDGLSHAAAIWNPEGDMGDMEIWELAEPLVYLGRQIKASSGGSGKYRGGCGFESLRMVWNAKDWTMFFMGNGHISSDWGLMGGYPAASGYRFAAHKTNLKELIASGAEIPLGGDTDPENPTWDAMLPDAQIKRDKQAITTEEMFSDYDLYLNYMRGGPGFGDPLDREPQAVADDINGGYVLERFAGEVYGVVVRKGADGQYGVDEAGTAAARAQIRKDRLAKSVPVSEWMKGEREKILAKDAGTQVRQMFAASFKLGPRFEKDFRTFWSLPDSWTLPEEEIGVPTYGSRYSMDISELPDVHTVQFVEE
T1 sequence (Q8RM04 1-717): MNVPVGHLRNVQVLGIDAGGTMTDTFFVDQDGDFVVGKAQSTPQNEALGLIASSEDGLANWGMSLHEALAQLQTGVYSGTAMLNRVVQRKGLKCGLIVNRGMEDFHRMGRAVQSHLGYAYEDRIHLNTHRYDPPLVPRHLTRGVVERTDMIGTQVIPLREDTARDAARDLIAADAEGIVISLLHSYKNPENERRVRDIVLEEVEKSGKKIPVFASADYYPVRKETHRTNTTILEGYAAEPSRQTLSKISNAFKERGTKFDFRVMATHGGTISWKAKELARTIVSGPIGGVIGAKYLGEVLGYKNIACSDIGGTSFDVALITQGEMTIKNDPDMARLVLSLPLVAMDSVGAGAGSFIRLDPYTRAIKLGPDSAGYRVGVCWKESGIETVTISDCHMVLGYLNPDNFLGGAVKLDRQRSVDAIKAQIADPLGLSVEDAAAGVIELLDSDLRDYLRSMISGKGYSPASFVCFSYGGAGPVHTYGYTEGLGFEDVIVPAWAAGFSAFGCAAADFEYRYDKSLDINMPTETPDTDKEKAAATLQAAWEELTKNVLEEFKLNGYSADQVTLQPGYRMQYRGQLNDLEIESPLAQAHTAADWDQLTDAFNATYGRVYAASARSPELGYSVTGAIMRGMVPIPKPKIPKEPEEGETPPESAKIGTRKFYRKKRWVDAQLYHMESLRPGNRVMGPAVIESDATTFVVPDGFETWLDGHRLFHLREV
T1 sequence (Q8RM02 2-168 partner limits assumed): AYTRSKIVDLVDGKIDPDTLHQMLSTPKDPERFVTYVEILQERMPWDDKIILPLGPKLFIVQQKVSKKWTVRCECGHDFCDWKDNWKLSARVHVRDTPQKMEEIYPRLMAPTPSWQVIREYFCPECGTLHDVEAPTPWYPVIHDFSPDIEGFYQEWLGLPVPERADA
Procedure: Assays were performed in 2 mL (1 cm path length) quartz cuvettes that had been modified by fusing a serum bottle-style quartz top (7×13 mm at mouth), allowing the cuvettes to be sealed with a red rubber serum stopper. […] The addition of […] (3 U) and NADH (0.2 mM) allowed acetoacetate formation to be coupled to the oxidation of NADH. […] The reaction was monitored by measuring the decrease in absorbance at 340 nm (∈340 of 6.22 mM^−·cm^−1 for NADH) over time in an Agilent Technologies (Palo Alto, Calif.) model 8453 UV-Visible Spectroscopy System containing a thermostat-controlled cell holder at 30° C.

[4] = system: secondary alcohol dehydrogenase from R. rhodochrous PNKb1; conditions: R. rhodochrous PNKb1 enzyme; cited from earlier work
[5] = system: S-ADH purified from M vaccae strain JOB-5; conditions: M vaccae enzyme; alcohols oxidized, acetone reduced; cited from earlier work
[6] = biological target: T2, acetone carboxylase from X. autotrophicus strain Py2 (Xanthobacter versatilis, UniProt Q8RM03+Q8RM04); conditions: cited from earlier work
T2 sequence (Q8RM03 1-776): T1 sequence (Q8RM03 1-776)
T2 sequence (Q8RM04 1-717): T1 sequence (Q8RM04 1-717)
T2 sequence (Q8RM02 2-168 partner limits assumed): T1 sequence (Q8RM02 2-168 partner limits assumed)

SMILES | Relative S-ADH Activity (%) JOB 5, alcohol oxidation [1] [%] | interference with the acetone measurement (current response) [2] | activity as substrate and inhibition of acetone carboxylation activity [3] | Km [4] [mM] | Km [5] [mM] | Relative S-ADH Activity (%) JOB 5, ketone reduction [1] [%] | also measured
CC(C)O [2-Propanol] | 100 | do not interfere | not active nor did they inhibit acetone carboxylation activity | 12 | 0.05 | – | –
CC(C)=O [Acetone, acetone] | – | – | – | – | 0.3 | 100 | Vmax [6]: 0.206 μmol acetone consumed·min^−1·mg^−1 protein; Km ([6]; read-out: apparent Km): 0.0078 mM
CCC(C)O (stereo not drawn) [2-Butanol] | 130 | – | not active nor did they inhibit acetone carboxylation activity | – | – | – | –
CCC(C)=O [2-Butanone] | – | – | – | – | – | 213 | current response relative to acetone ([2]; 50 μM butanone): equivalent to 50 μM acetone; rate relative to acetone using the coupled enzyme system [3]: 3 to 4%; carboxylation rate relative to that of acetone [6]: 40%
CCCO [1-Propanol] | 9 | – | not active nor did they inhibit acetone carboxylation activity | 18 | 8.1 | – | –
CCO [Ethanol] | – | do not interfere | – | – | – | – | effect on rate of NADH oxidation (inhibition) ([3]; addition of ethanol (10 mM)): no decrease in the rate was observed
